Laboratory results reported in ChEMBL document CHEMBL1140001, “Hypoxia-driven elimination of thiopurines from their nitrobenzyl prodrugs” (Bioorg Med Chem Lett, 2007).

How the values were obtained:
Type in all cases: ADME, cell-based
Settings in all cases: human
A549 [1] = assay: Metabolic stability in A549 cells assessed as rate of prodrug loss in anoxic condition
A549 [2] = assay: Metabolic stability in A549 cells assessed as rate of prodrug loss in aerobic condition
A549 [3] = assay: Metabolic stability in A549 cells assessed as rate of 6-thioguanine production in anoxic condition
A549 [4] = assay: Metabolic stability in A549 cells assessed as rate of 6-thioguanine production in aerobic condition

CC(C)(Sc1nc(N)nc2[nH]cnc12)c1ccc([N+](=O)[O-])cc1
Activity (A549 [1]): 100 nM/min
Activity (A549 [2]): 9.5 nM/min
Activity (A549 [3]): 72 nM/min
Activity (A549 [4]): 1.7 nM/min

Nc1nc(SCc2ccc([N+](=O)[O-])cc2)c2nc[nH]c2n1
Activity (A549 [1]): 39 nM/min
Activity (A549 [2]): 0 nM/min
Activity (A549 [3]): 0 nM/min
Activity (A549 [4]): 1.7 nM/min
